Where two headings read alike, the source gives them in different places.
Columns and labels:
HeLa cells = test: Compound screen by flow cytometry: HeLa cell count as surrogate readout of cell viability (z-scoreHeLa); format: cell-based, human; settings: for cell count rep 1 / cell count rep 2 / cell count rep 3 / z-scoreHeLa mean / z-scoreHeLa rep 1 / z-scoreHeLa rep 2 / z-scoreHeLa rep 3: HeLa cell count; for cell count rep 1 / z-scoreHeLa rep 1: replicate 1; for cell count rep 2 / z-scoreHeLa rep 2: replicate 2; for cell count rep 3 / z-scoreHeLa rep 3: replicate 3; for z-scoreHeLa mean: mean of 3 replicates; as to all read-outs here: test concentration or dose not given here
In short: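 The viability surrogate was the count of fixed HeLa cells by flow cytometry, converted to z-scores against DMSO controls with values deviating two-fold excluded. Before counting, cells had been infected with MRSA for 1 h and cleared of extracellular bacteria with gentamicin. They were then exposed overnight to kinase inhibitors in triplicate.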

intracellular MRSA = format: cell-based, Staphylococcus aureus; settings: for %GFP+ rep 1 / %GFP+ rep 2 / %GFP+ rep 3 / z-scoreMRSA+ mean / z-scoreMRSA+ rep 1 / z-scoreMRSA+ rep 2 / z-scoreMRSA+ rep 3: MRSA-infected HeLa cells; for %GFP+ rep 1 / z-scoreMRSA+ rep 1: replicate 1; for %GFP+ rep 2 / z-scoreMRSA+ rep 2: replicate 2; for %GFP+ rep 3 / z-scoreMRSA+ rep 3: replicate 3; for z-scoreMRSA+ mean: mean of 3 replicates
In short: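 Values are z-scores: GFP-positive HeLa percentage and event count per well against plate statistics, minus the mean DMSO z-score. Wells deviating two-fold from controls were left out of plate means. Infection was at a mean MOI of 6.8, with an overnight compound exposure.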

[1] = Yes/No: effect without cell death
For %GFP+ rep 1 in this document: test concentration or dose not given here.
For %GFP+ rep 2 in this document: test concentration or dose not given here.
For %GFP+ rep 3 in this document: test concentration or dose not given here.
For effect in this document: test concentration or dose not given here.
For z-scoreMRSA+ mean in this document: test concentration or dose not given here.
For z-scoreMRSA+ rep 1 in this document: test concentration or dose not given here.
For z-scoreMRSA+ rep 2 in this document: test concentration or dose not given here.
For z-scoreMRSA+ rep 3 in this document: test concentration or dose not given here.

SMILES	cell count rep 1 (HeLa cells; PKIS compound screen raw data)	cell count rep 2 (HeLa cells; PKIS compound screen raw data)	cell count rep 3 (HeLa cells; PKIS compound screen raw data)	cell death (HeLa cells; Yes/No call from z-scoreHeLa)	z-scoreHeLa mean (HeLa cells; compound screen)	z-scoreHeLa rep 1 (HeLa cells; compound screen)	z-scoreHeLa rep 2 (HeLa cells; compound screen)	z-scoreHeLa rep 3 (HeLa cells; compound screen)	%GFP+ rep 1 (intracellular MRSA; PKIS compound screen raw data) [%]	%GFP+ rep 2 (intracellular MRSA; PKIS compound screen raw data) [%]	%GFP+ rep 3 (intracellular MRSA; PKIS compound screen raw data) [%]	effect (intracellular MRSA; Yes/No call from z-scoreMRSA+)	hit (intracellular MRSA; [1])	z-scoreMRSA+ mean (intracellular MRSA; compound screen)	z-scoreMRSA+ rep 1 (intracellular MRSA; compound screen)	z-scoreMRSA+ rep 2 (intracellular MRSA; compound screen)	z-scoreMRSA+ rep 3 (intracellular MRSA; compound screen)	cell count rep 1 (HeLa cells; PKIS compounds raw data)	cell count rep 2 (HeLa cells; PKIS compounds raw data)	cell count rep 3 (HeLa cells; PKIS compounds raw data)	also measured
CN1CCN(Cc2ccc(NC(=O)Nc3ccc(N(C)c4ccnc(Nc5ccc(CS(C)(=O)=O)cc5)n4)cc3)cc2)CC1 [GW827654A]	30631	31592	23281	No	0.67	0.07	1.08	0.85	24.8	24.9	25.0	No	No	1.38	1.61	1.50	1.03				
CN(c1ccc(NC(=O)Nc2cccc(Cl)c2)cc1)c1ccnc(N)n1 [GW830707A]	2862	2838	4346	No	-0.92	-1.07	-1.13	-0.56	21.9	21.1	22.8	No	No	-0.32	-0.79	-0.37	0.18				
Cc1cccc(-c2nc(Nc3ccncc3)c3ccccc3n2)n1 [GW855857X]	3133	3003	4517	No	-0.78	-0.88	-1.00	-0.46	26.0	24.5	21.6	No	No	0.15	0.17	0.46	-0.18				
CC(C)(C)c1ccc2nccc(Nc3cccc(O)c3)c2c1 [GW856795X]	35017	26624	35940						14.7	17.0	17.5										z-scoreHeLa mean (HeLa cells; PKIS compound screen): 0.00181; z-scoreHeLa rep 1 (HeLa cells; PKIS compound screen): 2.26; z-scoreHeLa rep 2 (HeLa cells; PKIS compound screen): -1.52; z-scoreHeLa rep 3 (HeLa cells; PKIS compound screen): -0.73; cell death (HeLa cells; PKIS compound screen, Yes/No call on z-scoreHeLa): No; z-scoreMRSA+ mean (intracellular MRSA; PKIS compound screen): -0.72; z-scoreMRSA+ rep 1 (intracellular MRSA; PKIS compound screen): -1.00; z-scoreMRSA+ rep 2 (intracellular MRSA; PKIS compound screen): -0.46; z-scoreMRSA+ rep 3 (intracellular MRSA; PKIS compound screen): -0.70; hit (intracellular MRSA; PKIS compound screen, Yes/No call (effect without cell death)): No; effect (intracellular MRSA; PKIS compound screen, Yes/No call on z-scoreMRSA+): No
Nc1ncc(-c2cccc(S(N)(=O)=O)c2)c2scc(-c3ccc(F)c(Cl)c3)c12 [GW856804X]				No	0.73	-0.49	2.25	0.43				No	No	-0.70	-0.60	-0.40	-1.09	4238	7246	7870	%GFP+ rep 1 (intracellular MRSA; PKIS compounds raw data): 11.3%; %GFP+ rep 2 (intracellular MRSA; PKIS compounds raw data): 12.3%; %GFP+ rep 3 (intracellular MRSA; PKIS compounds raw data): 12.2%
Cc1cccc(-c2nc(Nc3ccc4[nH]ncc4c3)c3ccccc3n2)n1 [GW857175X]				No	-2.21	-2.48	-2.27	-1.88				No	No	-0.54	-0.0227	-0.67	-0.94	2034	1268	3042	%GFP+ rep 1 (intracellular MRSA; PKIS compounds raw data): 13.1%; %GFP+ rep 2 (intracellular MRSA; PKIS compounds raw data): 11.5%; %GFP+ rep 3 (intracellular MRSA; PKIS compounds raw data): 12.7%

From article PMC10999543, “Identification of kinase modulators as host-directed therapeutics against intracellular methicillin-resistant Staphylococcus aureus” (Frontiers in Cellular and Infection Microbiology, 2024)
